Measurements reported in paper PMC6776549, “Gingival solitary chemosensory cells are immune sentinels for periodontitis” (Nature Communications, 2019).

Assays:
Tas2r105 [1] = target: T1, Tas2r105 (Mus musculus, UniProt Q9JKT4); test: calcium mobilization in transfected HEK293; type: cell-based; conditions: agonist, Gα16gust44 co-expressed
T1 construct: coding region amplified from WT mouse taste bud cDNA; N-terminal tag of first 45 residues of rat somatostatin receptor 3; pcDNA3.1/Zeo(+); transient in HEK293 (PEAKrapid) with chimeric reporter G protein Galpha16gust44
T1 sequence (Q9JKT4 1-300): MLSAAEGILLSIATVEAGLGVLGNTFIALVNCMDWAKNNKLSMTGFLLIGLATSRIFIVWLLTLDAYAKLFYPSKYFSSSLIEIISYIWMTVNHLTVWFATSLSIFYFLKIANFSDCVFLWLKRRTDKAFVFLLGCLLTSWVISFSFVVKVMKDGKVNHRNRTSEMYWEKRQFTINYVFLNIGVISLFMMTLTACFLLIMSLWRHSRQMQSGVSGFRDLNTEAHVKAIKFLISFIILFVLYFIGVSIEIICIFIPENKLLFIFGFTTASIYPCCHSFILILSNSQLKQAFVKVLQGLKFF

Tas2r105 [2] = target: T1, Tas2r105; test: calcium mobilization in transfected HEK293, fluorescence dose-response; type: cell-based

CCCCCCCC(=O)N[C@H]1CCOC1=O [C8-HSL]
calcium mobilization in transfected HEK293 (Tas2r105 [1]; synthetic compound): two synthetic HSLs: 3-oxo-C12-HSL and C8-HSL

CCCCCCCCCC(=O)CC(=O)N[C@H]1CCOC1=O [LasI]
EC50 (Tas2r105 [2]): 8.9 µM

CC[N+](CC)(CC(=O)Nc1c(C)cccc1C)Cc1ccccc1 [denatonium benzoate]
calcium mobilization in transfected HEK293 (Tas2r105 [1]): Tas2r105 was also activated by the bitter compounds denatonium benzoate (Den)
